Source: patent publication US20040142994A1, “Azolylcarbynol derivatives of aryl (or heteroaryl) for the treatment of respiratory diseases” (priority 2001, published 2004)

Key:
[1] = Observation for possible sedative effects in the treated guinea-pigs; format: in vivo, guinea-pig; settings: ip
Source text: To do this, the antitussive activity has been studied in guinea-pigs, simultaneously studying the possible sedative effects at the doses used in this study. The method used was the one described by Boura [Boura A L A, Green A F, Saunders I A (1970), An antitussive test using guinea-pigs. Br. J. Pharmacol., 39, 225P], con modificaciones más recientes [Adcock J J, Schneider C, Smith T W (1988), Effects of codeine, morphine a novel opioid pentapeptide BW443C, on cough, nociception and ventilation in the unanaesthetized guinea-pig. Br. J. Pharmacol., 93:93-100; Clay T P, Thompson M A (1985), Irritant induced cough as a model of intrapulmonary airway reactivity. Lung, 163:183-191; Forsberg K, Karlsson J-A, Theodorsson E; Lundberg J M; Persson C G A (1988), Cough and bronchoconstriction mediated by capsaicin-sensitive sensory neurons in the guinea-pig. Pulm Pharmacol, 1: 33-39; Gallico L, Borghi A, Dalla Rosa C, Ceserani R, Tognella S (1994), Moguisteine: a novel peripheral non-narcotic antitussive drug. […]
The guinea-pigs (250-400 g) were deprived of water and food 30 minutes before any intervention. […] During this period, the animals were observed continuously, the number of coughs was counted and the baseline value was taken as control. […] The antitussive activity was assessed for each guinea-pig as the reduction in the number of coughs compared to their previously recorded values. […]

[2] = tested on: cough induced by citric acid aerosol; assay: Antitussive activity against cough induced by citric acid aerosol in guinea-pig; format: in vivo; settings: ip; for N° of Coughs ± SEM: 30 min before citric acid aerosol (7.5% p/v), 12.5 min observation, N=10; for SD-50: antitussive activity, citric acid aerosol
Source text: To do this, the antitussive activity has been studied in guinea-pigs, simultaneously studying the possible sedative effects at the doses used in this study. The method used was the one described by Boura [Boura A L A, Green A F, Saunders I A (1970), An antitussive test using guinea-pigs. Br. J. Pharmacol., 39, 225P], con modificaciones más recientes [Adcock J J, Schneider C, Smith T W (1988), Effects of codeine, morphine a novel opioid pentapeptide BW443C, on cough, nociception and ventilation in the unanaesthetized guinea-pig. Br. J. Pharmacol., 93:93-100; Clay T P, Thompson M A (1985), Irritant induced cough as a model of intrapulmonary airway reactivity. Lung, 163:183-191; Forsberg K, Karlsson J-A, Theodorsson E; Lundberg J M; Persson C G A (1988), Cough and bronchoconstriction mediated by capsaicin-sensitive sensory neurons in the guinea-pig. Pulm Pharmacol, 1: 33-39; Gallico L, Borghi A, Dalla Rosa C, Ceserani R, Tognella S (1994), Moguisteine: a novel peripheral non-narcotic antitussive drug. Br. J. Pharmacol,112:795-800].
The guinea-pigs (250-400 g) were deprived of water and food 30 minutes before any intervention. The guinea-pigs, neither ligated nor anaesthetised, were individually placed in a perspex box (20×12×14 cm.) and left for an accommodation period of 15 minutes. After this period, the animals were exposed to an aerosol of an aqueous solution of citric acid (7.5% p/v, 0.39M). This concentration of citric acid is the minimum concentration capable of producing the maximum number of coughs during the observation period (Forsberg et al., 1988). The aerosol was generated for 2.5 minutes using an ultrasound nebulizer (De Vilbiss, Ultraneb 99; mean particle size 0.9 μm, with a flow of 0.5 ml/min.). The observation period with the animals exposed to the nebulized citric acid in the box was 12.5 minutes (2.5 minutes of aerosol production, followed by an additional 10 minutes). During this period, the animals were observed continuously, the number of coughs was counted and the baseline value was taken as control. Only the guinea-pigs that coughed between 15 and 30 times during the observation period were selected for the study. On the day after the selection the animals were randomly treated with the vehicle or with the study product thirty minutes before being exposed again to the citric acid aerosol. The antitussive activity was assessed for each guinea-pig as the reduction in the number of coughs compared to their previously recorded values. On the other hand, the animals were observed from the time of administration of the product until the end of the experiment for possible sedative effects.

What does the source list for `CN(C)CCOC(c1ccccc1)c1ccnn1C.O=C(O)CC(O)(CC(=O)O)C(=O)O` (racemic) [Product, (±)-5-{α-[2-(dimethylamine)ethoxy]benzyl}-1-methyl-1H pirazole citrate]?
sedative effect ([1]; 10, 40 and 100 mg/kg): does not produce any sedative effect; sedative effect ([1]; maximum dose used 100 mg/kg): no sedative effect; N° of Coughs ± SEM ([2]; 10 mg/kg): 8.7 ± 0.7; N° of Coughs ± SEM ([2]; 40 mg/kg): 4.3 ± 0.5; N° of Coughs ± SEM ([2]; 100 mg/kg): 2.8 ± 0.4; antitussive activity (in words) ([2]; 10, 40 and 100 mg/kg): good antitussive activity which is perfectly dose-related; inhibition at 10 mg/kg ([2]; Cavia porcellus, 10 mg/kg, inhibition of coughs): 37%; inhibition at 40 mg/kg ([2]; Cavia porcellus, 40 mg/kg, inhibition of coughs): 71%; inhibition at 100 mg/kg ([2]; Cavia porcellus, 100 mg/kg, inhibition of coughs): 80%; SD-50 [2]: 17.6 mg/kg, ip; SD-50 ([2]; listed as (±)-5-{α-[2(dimethylamine) ethoxy]benzyl}-1-methyl-1H-pirazole citrate): 17.6 mg/kg
